Results reported in patent US7034208B1, “Ahas inhibiting herbicide resistant wheat and method for selection thereof” (BASF Aktiengellschaft, priority 1991, dated 2006).

How the values were obtained:
[1] = system: mutant wheat selections FS1-FS4 and Fidel; type: in vivo; settings: postemergence
From the text: This greenhouse test examines the level and spectrum of herbicide resistance of the mutant selections at the whole plant level. […] These lines are bulked according to their parental lines: FS1, FS2, FS3 and FS4. Fidel (wild-type) is used is a control and for performance comparison purposes. Five seeds from each of these lines (including Fidel) are planted per pot in six inch Azalea pots and are later thinned to three plants per pot. Three replicates are used per treatment (chemical and rate) for each line, and six replicates per wheat line are used as untreated controls. Plants are sprayed postemergence, 10 days after planting, with the following herbicides and rates: […]

[2] = system: F2 progeny of Fidel x FS1-FS4 crosses and Fidel; assay: Genetic Condition Studies Experiment 4, F2 of (Fidel x FS) selfed; type: in vivo, wheat; settings: 200 g/ha postemergence
From the text: Experiment 4: The resistant wheat selections, FS1-FS4, are crossed to Fidel and the F1 seed from these crosses is selfed. The crosses are as follows: (Fidel×FS1) selfed (Fidel×FS2) selfed (Fidel×FS3) selfed (Fidel×FS4) selfed
The F2 progeny from these crosses and their susceptible progenitor variety Fidel are planted in flats. Five F2 progenies are used for each of the four crosses. One flat is planted of each progeny for each cross. The flats consist of six rows per flat with 25 seeds per row. The flats are sprayed postemergence with 200 g/ha PURSUIT™ eleven days later. The PURSUIT™ is applied as previously described.

With `CCc1cnc(C2=NC(C)(C(C)C)C(=O)N2)c(C(=O)O)c1` (centres unmarked) [PURSUIT, 5-ethyl-2-(4-isopropyl-4-methyl-5-oxo-2-imidazolin-2-yl)-nicotinic acid] the “rate to which the mutant wheat is resistant” value ([1]; mutant wheat FS1-FS4, plant growth four weeks after treatment) was “more than 320 g/ha”, the “increased tolerance of mutant wheat” value ([1]; mutant wheat FS1-FS4 versus Fidel, four weeks after treatment) was about 8 fold and the “segregation ratio of F2 progenies” value ([2]; F2 of each of the four crosses (Fidel x FS1-FS4) selfed) was 3 (resistant): 1 (susceptible). The lethality ([2]; plants heterozygous or homozygous for resistance) was “non-lethal” and the lethality ([2]; susceptible wheat) was “lethal to susceptible wheat”.
